Test results from patent US20090048269A1 (AstraZeneca AB, priority 2007, published 2009).

Experiments:
human ALK5 [1] = biological target: T1, human ALK5 (Homo sapiens, UniProt P36897); experiment: ALK5 Enzyme Assay 1; type: biochemical; set-up: 6His tagged ALK5 protein (amino acids 162-503) expressed in insect cells; 6His; made in house; host or cells: insect cells; details: read-out: EAA: activity (μM) using Enzyme Assay 1
T1 sequence (P36897 162-503): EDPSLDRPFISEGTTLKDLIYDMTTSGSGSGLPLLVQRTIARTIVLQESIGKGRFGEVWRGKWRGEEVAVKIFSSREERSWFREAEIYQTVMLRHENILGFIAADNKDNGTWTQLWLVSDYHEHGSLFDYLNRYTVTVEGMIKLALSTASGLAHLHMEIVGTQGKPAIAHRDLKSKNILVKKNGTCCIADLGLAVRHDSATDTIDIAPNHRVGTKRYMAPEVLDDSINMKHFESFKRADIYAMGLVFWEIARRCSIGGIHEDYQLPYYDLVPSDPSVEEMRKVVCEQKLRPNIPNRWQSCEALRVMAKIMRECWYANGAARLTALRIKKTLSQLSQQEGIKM
Experimental: This assay measures the ability of a compound to bind to and inhibit the activity of ALK5 protein in vitro. […] Assay measurements were performed in assay buffer comprising 60 mM HEPES pH 7.4, 3 mM MgCl2, 3 mM MnCl2, 3 μM Na orthovanadate, 1.2 mM DTT and 0.05% PEG2000. […] Reactions were performed in the presence of 200 μg/mL casein (Sigma-Aldrich C4765-10ML), 200 ng/mL ALK5, 0.5 μM ATP (Sigma-Aldrich A7699), 1 μCi/mL γ-33P ATP. Following addition of casein, ATP and compound, reactions were initiated by adding ALK5 enzyme and reactions run for 90 minutes. After incubation reactions were terminated by addition of 20 μL per well of 50% orthophosphoric acid. 20 minutes after addition of 70% v/v TCA, precipitated protein was transferred to GF/C 96 well plates using a Tomtec harvester with 1.5% orthophosphoric acid. […] All reactions were performed under linear kinetics.

[2] = tested on: TGFβ1 mediated smad2 nuclear translocation; experiment: Cell Assay (Smad2 Redistribution Assay, MDA-MB-468 Smad2-EGFP cells); type: cell-based; details: Homo sapiens, read-out: CAA: cell assay activity
Excerpt: Ligand mediated translocation of R-Smads (Smads 1,2,3,5,8) is a well-documented phenomenon in a variety of cell types. (Derynck, R. and Zhang, Y., 2003, Nature, 425, 577-584, Shi, Y. and Massague, J., 2003, Cell, 113, 685-700). Specifically TGFβ1 and TGFβ3 cause phosphorylation and nuclear translocation of Smad2 and Smad3 transcription factors. Thus compound inhibition of TGFβsignalling can be estimated by measuring cellular distribution of Smad2 or 3 under activated TGFβpathway. The Smad2 Redistribution™ Assay (Fisher BioImage ApS) was used to assess in vitro cellular activity of compounds of interest. The breast adenocarcinoma MDA-MB-468 parent cell line was used to create a recombinant cell line, MDA-MB-468 PS213 I GScl4C8 containing Smad2 fused to the C-terminus of enhanced green fluorescent protein (Smad2-EGFP). This enables monitoring of cellular distribution of Smad2 using high throughput fluorescence microscopy.
This assay measures the ability of compounds to inhibit TGFβ1 mediated smad2 nuclear translocation. Compounds dose ranges were created by diluting in 100% DMSO and then further into assay media (RPMI1640, 1% FCS, 10 mM HEPES pH 7.4). Cells were plated in 96 well Packard View plates at 8×10^3 per well in 100 μL RPMI1640, 10% FCS, 0.5 mg/mL geneticin and grown for 48 hrs. […] Plates were then read on an ArrayScan Vti instrument to determine nuclear to cytoplasmic staining. […]

human ALK5 [3] = biological target: T1, human ALK5; experiment: ALK5 Enzyme Assay 2 (fluorescence polarisation probe displacement); type: binding; set-up: 6His tagged human ALK5 (residues162-503) was grown and purified from insect cells; 6His; made in house; host or cells: insect cells; details: read-out: EAA2: activity (μM) using Enzyme Assay 2
In short: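 Recombinant ALK5 (3 μg/mL) incubated with test compound in 50 mM HEPES pH7.4, 10 mM MgCl2, 1 mM DTT, 0.01% CHAPS. Displacement of a fluorescent quinazoline-based ALK5 probe (50 nM final) in presence of 1 μM ATP read by fluorescence polarisation.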

[4] = IT6 (abbreviation not defined)

IC50 (human ALK5 [1]) [µM] | IC50 [2] [nM] | IC50 (human ALK5 [3]) [µM] | SMILES | IT6 [4]
0.0154 | 90.4 | – | COc1cc(Nc2cc(Oc3ccc(C)nc3-c3cccc(C)c3)ccn2)cc(OC)c1OC [Example 57, 4-[6-Methyl-2-(3-methylphenyl)pyridin-3-yl]oxy-N-(3,4,5-trimethoxyphenyl)-pyridin-2-amine] | –
0.0187 | – | 0.135 | COc1cccc(-c2nc(C)ccc2Oc2ccnc(Nc3cc(OC)c(OC)c(OC)c3)c2)c1 [Example 58, 4-[2-(3-Methoxy-phenyl)-6-methyl-pyridin-3-yl]oxy-N-(3,4,5-trimethoxy-phenyl)pyridin-2-amine] | –
– | – | 0.348 | CNC(=O)c1nc(C)ccc1Oc1ccnc(Nc2ccccc2)c1 [Example 97, 3-(2-Anilinopyridin-4-yl)oxy-N,6-dimethylpyridine-2-carboxamide] | 0.9458
